The source made the active and inactive calls.

As usually defined, the IC50 is the concentration that gives 50% inhibition. As a reminder, the AC50 is the concentration giving half of the maximal activity seen.

Experiment [1] deals with Aryl hydrocarbon receptor (Homo sapiens, UniProt P35869). The experiment can be described thus: Luminescence-based cell-based high throughput dose response assay for activators of the Aryl Hydrocarbon Receptor (AHR). [Related pubchem assays: 2796 (Primary screen (AHR activators in singlicate)), 2845 (Confirmation screen (AHR activators in triplicate)), 434939 (Counterscreen (PXR activators in triplicate)), 2804 (Summary (AHR activators))]. Format: ADME.

The target in experiment [2] is T1, Bcl-2-related protein A1 (Mus musculus, UniProt Q07440).
T1 sequence (Q07440 whole entry): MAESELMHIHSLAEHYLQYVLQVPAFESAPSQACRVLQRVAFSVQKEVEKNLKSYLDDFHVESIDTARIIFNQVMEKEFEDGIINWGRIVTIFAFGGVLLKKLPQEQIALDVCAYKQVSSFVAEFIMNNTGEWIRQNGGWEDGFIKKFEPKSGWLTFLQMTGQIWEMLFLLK
The experiment can be described thus: Bfl-1 inhibitors blocking BH3 peptide binding, confirmation, biochemical, TR-FRET, mouse Bfl-1 (AID 621).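 Note: TR-FRET binding of GST-Bfl-1 to FITC-labelled Bid peptide via terbium antibody.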 On the technique in general: TR-FRET usually uses a lanthanide donor and a delayed reading to cut background.

Experiment [3] has as its target T1, Bcl-2-related protein A1. Put plainly: Bfl-1 binding inhibitors, SAR follow-up, biochemical, fluorescence polarization (AID 1070). A general note: Polarisation of emitted light reports the rotation of a fluorescent probe.
The target of experiment [4] is Glyceraldehyde-3-phosphate dehydrogenase (Homo sapiens, UniProt P04406).
Chain of Glyceraldehyde-3-phosphate dehydrogenase (P04406 whole entry): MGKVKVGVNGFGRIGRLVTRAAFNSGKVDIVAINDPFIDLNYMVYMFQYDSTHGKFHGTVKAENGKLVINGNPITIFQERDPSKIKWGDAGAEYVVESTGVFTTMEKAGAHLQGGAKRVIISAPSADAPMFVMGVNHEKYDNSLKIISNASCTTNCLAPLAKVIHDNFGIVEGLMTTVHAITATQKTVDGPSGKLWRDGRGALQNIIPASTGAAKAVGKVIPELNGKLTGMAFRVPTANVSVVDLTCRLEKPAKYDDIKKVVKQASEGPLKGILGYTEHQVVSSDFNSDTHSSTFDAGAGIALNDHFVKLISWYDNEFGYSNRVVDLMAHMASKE
Experiment [5] addresses Sphingosine 1-phosphate receptor 2 (Homo sapiens, UniProt O95136). The experiment can be described thus: Dose Response Cell Based Assay for Antagonists of the S1P2 Receptor. [Related pubchem assays: 856, 736 ]. It counts as functional.
Experiment [6] deals with Mitogen-activated protein kinase 10 (Homo sapiens, UniProt P53779). Put plainly: Dose response biochemical screening assay for inhibitors of c-Jun N-Terminal Kinase 3 (JNK3). [Related pubchem assays: 746 ].
Chain of Mitogen-activated protein kinase 10 (P53779 whole entry): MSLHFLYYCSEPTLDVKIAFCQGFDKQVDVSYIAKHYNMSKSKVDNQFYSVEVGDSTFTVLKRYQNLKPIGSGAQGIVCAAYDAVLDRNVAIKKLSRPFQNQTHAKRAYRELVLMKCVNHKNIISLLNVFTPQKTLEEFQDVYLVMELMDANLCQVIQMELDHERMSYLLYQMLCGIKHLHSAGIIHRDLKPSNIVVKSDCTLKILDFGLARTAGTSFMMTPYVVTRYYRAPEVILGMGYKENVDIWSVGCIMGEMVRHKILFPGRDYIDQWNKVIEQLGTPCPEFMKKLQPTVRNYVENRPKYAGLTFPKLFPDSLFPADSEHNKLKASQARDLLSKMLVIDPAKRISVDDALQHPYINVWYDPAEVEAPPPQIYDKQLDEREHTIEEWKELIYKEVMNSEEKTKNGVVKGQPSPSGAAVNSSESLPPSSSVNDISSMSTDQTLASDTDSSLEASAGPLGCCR
The nature of experiment [7]: Luminescence Cell-Based Dose Confirmation HTS to Identify Inhibitors of Platelet Dense Granule Release. [Related pubchem assays: 1663 (Primary HTS), 1678 (Summary of Project)]. Format: functional.
The target in experiment [8] is E3 ubiquitin-protein ligase Mdm2 (Homo sapiens, UniProt Q00987). The experiment can be described thus: enhancers of MDM2-luciferase reporter signal, concentration-effect titration, project on inhibitors of MDM2 ubiquitin ligase, cellular assay, luminescent readout, 384-well plate format (AID 1394).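 Note: MDM2 E3 inhibitors raise luminescence so EC50 is for signal enhancement.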 Format: functional. On the technique in general: In a reporter assay the amount or activity of a reporter protein is the signal.
Chain of E3 ubiquitin-protein ligase Mdm2 (Q00987 whole entry): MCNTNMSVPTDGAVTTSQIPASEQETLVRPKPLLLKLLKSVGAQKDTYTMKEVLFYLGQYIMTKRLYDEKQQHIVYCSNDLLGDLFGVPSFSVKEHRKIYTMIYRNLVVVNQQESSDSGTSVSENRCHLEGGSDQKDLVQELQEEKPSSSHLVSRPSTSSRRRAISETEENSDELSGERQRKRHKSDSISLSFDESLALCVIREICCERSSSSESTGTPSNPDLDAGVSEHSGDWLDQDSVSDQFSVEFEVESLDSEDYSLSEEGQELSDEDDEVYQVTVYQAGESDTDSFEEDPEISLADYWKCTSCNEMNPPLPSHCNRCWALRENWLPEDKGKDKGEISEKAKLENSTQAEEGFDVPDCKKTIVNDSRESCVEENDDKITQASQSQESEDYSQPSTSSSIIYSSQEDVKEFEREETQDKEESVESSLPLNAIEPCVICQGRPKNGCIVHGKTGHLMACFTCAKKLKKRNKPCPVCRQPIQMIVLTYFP

Experiment [9] concerns the target Luciferin 4-monooxygenase (Photinus pyralis, UniProt P08659). The experiment can be described thus: firefly luciferase enzyme inhibitors, dose response, biochemical, luminescence (AID 1891).
Experiment [10] deals with T2, Oxysterols receptor LXR-beta (Homo sapiens, UniProt P55055).
T2 sequence (P55055 whole entry): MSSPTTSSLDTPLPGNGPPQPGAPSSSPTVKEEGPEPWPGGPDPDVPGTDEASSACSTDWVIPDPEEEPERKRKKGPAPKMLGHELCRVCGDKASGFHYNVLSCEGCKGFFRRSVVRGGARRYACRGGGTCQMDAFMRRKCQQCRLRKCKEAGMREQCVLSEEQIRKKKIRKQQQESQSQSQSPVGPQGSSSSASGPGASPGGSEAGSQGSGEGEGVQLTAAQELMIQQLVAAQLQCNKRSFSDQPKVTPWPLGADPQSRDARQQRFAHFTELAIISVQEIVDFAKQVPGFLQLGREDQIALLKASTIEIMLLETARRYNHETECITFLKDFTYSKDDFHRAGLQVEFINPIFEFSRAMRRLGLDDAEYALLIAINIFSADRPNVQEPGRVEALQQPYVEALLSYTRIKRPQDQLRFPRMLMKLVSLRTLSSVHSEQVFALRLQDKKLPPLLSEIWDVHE
The experiment can be described thus: LXR agonists, Gal4 luciferase reporter, dose response, counter-screen for ssDAF-12 agonist project, cell-based, luminescence, HEK293, S. stercoralis campaign (AID 720737). Format: functional. To be noted: read-out: IC50 (the source's name).

Experiment [11] can be described thus: Luminescence-based cell-based high throughput dose response assay to identify activators of the DAF-12 from the parasite S. stercoralis (ssDAF-12). Format: functional.
Experiment [12] is described as follows: Luminescence-based dose response cell-based high throughput screening assay for cytotoxic compounds using the IEC-6 intestinal epithelial cell line. [Related pubchem assays: 1858 (Summary AID.), 1825 (Counterscreen.), 1907 (Confirmation screen.)]. Format: functional.
For experiment [13], the system named is BJ. The experiment can be described thus: cells. Format: functional, cell-based. Conditions: Homo sapiens.
Experiment [14] concerns BJ. Put plainly: cytotoxicity toward BJ-TERT fibroblasts, dose response, cell-based, RAS-independent, luminescence (AID 1933). It counts as functional. Conditions: Homo sapiens.
Experiment [15] deals with BJ. The experiment can be described thus: cytotoxicity toward Ras-transformed BJeLR fibroblasts, dose response, cell-based, alamar blue fluorescence, cherrypicked samples (AID 2631).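 Note: confirmatory dose-response assay in RAS-dependent BJ fibroblasts engineered with TERT, LT and ST, with cytotoxicity read by fluorescence.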 Format: functional. Conditions: Homo sapiens.
A short description of experiment [16]: cytotoxicity toward DRD oncogenic fibroblasts, dose response, cell-based, non-viral oncogenic, luminescence (AID 1934). It counts as functional. To be noted: Homo sapiens.
The next experiment deals with Paired box protein Pax-8 (Homo sapiens, UniProt Q06710). The experiment can be described thus: inhibitors of PAX8-driven TPO luciferase reporter, dose response, RMG-I cells, cherry-pick (AID 687027).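 Note: luciferase reporter driven by Pax8 target thyroperoxidase promoter measured by SteadyGlo luminescence.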 It counts as functional, cell-based.
Chain of Paired box protein Pax-8 (Q06710 whole entry): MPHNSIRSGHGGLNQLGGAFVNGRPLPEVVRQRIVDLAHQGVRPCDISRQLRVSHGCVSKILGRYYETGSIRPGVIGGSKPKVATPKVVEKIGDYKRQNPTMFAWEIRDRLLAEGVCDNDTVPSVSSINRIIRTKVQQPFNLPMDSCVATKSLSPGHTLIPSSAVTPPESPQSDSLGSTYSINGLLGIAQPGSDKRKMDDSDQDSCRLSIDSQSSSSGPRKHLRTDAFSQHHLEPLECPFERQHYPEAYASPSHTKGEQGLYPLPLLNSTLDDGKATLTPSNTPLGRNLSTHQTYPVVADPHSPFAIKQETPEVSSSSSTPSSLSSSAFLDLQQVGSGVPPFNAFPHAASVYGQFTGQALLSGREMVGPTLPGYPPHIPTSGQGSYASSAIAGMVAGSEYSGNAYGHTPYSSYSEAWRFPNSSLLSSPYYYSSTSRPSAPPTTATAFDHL
Experiment [17] is described as follows: cytotoxicity in HEK-293T cells, dose response, cytotoxicity control for TCR NF-kB inhibitor project, luminescence, T-cell screen hits (AID 489026).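 Note: cells exposed to compound about 14 hours before the viability readout.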 It counts as functional, cell-based.
The nature of experiment [18]: Luminescence Cell-Based Dose Response to Identify Activators of Luciferase Translation or Activity in H4-C Neuroglioblastoma Cells. [Related pubchem assays: 1829 (Project Summary), 1814 (Primary HTS)]. It counts as functional.
Experiment [19] can be described thus: Luminescence Cell-Based Dose Confirmation HTS to Identify Activators of 5'UTR Stem-Loop Driven Alpha-Synuclein mRNA Translation in H4 Neuroglioblastoma Cells. [Related pubchem assays: 1829 (Project Summary), 1814 (Primary HTS)]. It counts as functional.
Experiment [20] is described as follows: Luminescence Cell-Based Dose Response to Identify Activators of 5'UTR Stem-Loop Driven Prion Protein mRNA Translation in H4-C Neuroglioblastoma Cells. [Related pubchem assays: 1829 (Project Summary), 1814 (Primary HTS)]. Format: functional.
The nature of experiment [21]: Luminescence Cell-Based Dose Response HTS to Identify Activators of Luciferase Translation or Activity in H4 […] Cells. [Related pubchem assays: 1829 (Project Summary), 1814 (Primary HTS)]. Format: functional.
The subject of the next experiment is H4. Put plainly: Luminescence Cell-Based Dose Response HTS to Identify Activators of 5'UTR Stem-Loop Driven Prion Protein mRNA Translation in H4 Neuroglioblastoma Cells. [Related pubchem assays: 1829 (Project Summary), 1814 (Primary HTS)]. It counts as functional. Conditions: Homo sapiens.
A short description of experiment [22]: Luminescence Cell-Based Dose Confirmation to Identify Activators of 5'UTR Stem-Loop Driven Alpha-Synuclein mRNA Translation in H4 Neuroglioblastoma Cells. [Related pubchem assays: 1829 (Project Summary), 1814 (Primary HTS)]. It counts as functional.
Experiment [23] in a line: P. falciparum Dd2 growth inhibitors, dose response, SYBR Green, dry powder samples, set 9 (AID 1159568). Format: functional, cell-based.
Experiment [24] can be described thus: P. falciparum Dd2 growth inhibitors, dose response, SYBR Green, cherry-picked samples (AID 1159567). It counts as functional, cell-based.
Experiment [25] is described as follows: P. falciparum 3D7-ScDHODH growth inhibitors, dose response, SYBR Green, dry powder samples (AID 1159570).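 Note: parasite growth measured after 72 hours of compound exposure.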 Format: functional, cell-based.
A short description of experiment [26]: P. falciparum Dd2 blood-stage growth inhibition, dose response, SYBR Green fluorescence, erythrocytes, dry powder, set 2 (AID 1159574). It counts as functional, cell-based.
Experiment [27] can be described thus: P. falciparum Dd2 growth inhibitors, dose response, SYBR Green, dry powder samples (AID 1159566).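 Note: potency for growth inhibition with lower SYBR green DNA signal.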 It counts as functional, cell-based.
Experiment [28] is described as follows: P. falciparum ATP4 D1247Y mutant growth inhibitors, dose response, NITD609-resistant line, SYBR Green, dry powder (AID 1159571).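 Note: parasites synchronized at ring stage by sorbitol before testing.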 It counts as functional, cell-based.
For a further experiment, the target named is Phospholipase D1 (Homo sapiens, UniProt Q13393). The experiment can be described thus: PLD1 Cellular Concentration Response Study. Format: functional.
Chain of Phospholipase D1 (Q13393 whole entry): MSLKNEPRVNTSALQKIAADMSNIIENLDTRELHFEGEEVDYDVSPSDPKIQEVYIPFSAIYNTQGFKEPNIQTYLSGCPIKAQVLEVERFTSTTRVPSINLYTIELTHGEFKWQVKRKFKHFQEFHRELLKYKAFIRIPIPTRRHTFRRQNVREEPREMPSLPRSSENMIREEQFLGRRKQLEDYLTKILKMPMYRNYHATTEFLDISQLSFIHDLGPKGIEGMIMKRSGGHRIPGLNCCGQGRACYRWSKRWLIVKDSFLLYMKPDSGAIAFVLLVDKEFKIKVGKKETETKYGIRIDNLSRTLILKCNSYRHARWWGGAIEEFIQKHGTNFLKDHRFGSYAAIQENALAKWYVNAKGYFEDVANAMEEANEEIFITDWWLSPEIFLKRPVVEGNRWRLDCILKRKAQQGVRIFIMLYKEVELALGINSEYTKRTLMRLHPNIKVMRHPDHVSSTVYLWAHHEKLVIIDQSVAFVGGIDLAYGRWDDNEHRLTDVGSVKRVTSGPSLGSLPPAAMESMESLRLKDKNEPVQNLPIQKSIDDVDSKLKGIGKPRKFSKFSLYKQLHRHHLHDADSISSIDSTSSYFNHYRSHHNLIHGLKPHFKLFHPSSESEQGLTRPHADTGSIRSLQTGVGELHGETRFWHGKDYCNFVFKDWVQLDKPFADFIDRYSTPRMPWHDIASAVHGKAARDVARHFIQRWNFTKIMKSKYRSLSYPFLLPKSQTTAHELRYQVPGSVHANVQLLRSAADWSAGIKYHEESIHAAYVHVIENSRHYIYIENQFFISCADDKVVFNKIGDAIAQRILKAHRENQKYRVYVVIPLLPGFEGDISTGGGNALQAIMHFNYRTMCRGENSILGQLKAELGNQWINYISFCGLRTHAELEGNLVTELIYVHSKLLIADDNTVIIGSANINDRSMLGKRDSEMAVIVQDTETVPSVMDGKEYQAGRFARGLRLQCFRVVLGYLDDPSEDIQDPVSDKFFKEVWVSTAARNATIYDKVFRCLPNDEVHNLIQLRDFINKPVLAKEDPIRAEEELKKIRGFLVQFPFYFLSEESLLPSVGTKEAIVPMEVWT
For another experiment, the target named is Phospholipase D2 (Homo sapiens, UniProt O14939). Put plainly: PLD2 Cellular Concentration Response Study. Format: functional.
Chain of Phospholipase D2 (O14939 whole entry): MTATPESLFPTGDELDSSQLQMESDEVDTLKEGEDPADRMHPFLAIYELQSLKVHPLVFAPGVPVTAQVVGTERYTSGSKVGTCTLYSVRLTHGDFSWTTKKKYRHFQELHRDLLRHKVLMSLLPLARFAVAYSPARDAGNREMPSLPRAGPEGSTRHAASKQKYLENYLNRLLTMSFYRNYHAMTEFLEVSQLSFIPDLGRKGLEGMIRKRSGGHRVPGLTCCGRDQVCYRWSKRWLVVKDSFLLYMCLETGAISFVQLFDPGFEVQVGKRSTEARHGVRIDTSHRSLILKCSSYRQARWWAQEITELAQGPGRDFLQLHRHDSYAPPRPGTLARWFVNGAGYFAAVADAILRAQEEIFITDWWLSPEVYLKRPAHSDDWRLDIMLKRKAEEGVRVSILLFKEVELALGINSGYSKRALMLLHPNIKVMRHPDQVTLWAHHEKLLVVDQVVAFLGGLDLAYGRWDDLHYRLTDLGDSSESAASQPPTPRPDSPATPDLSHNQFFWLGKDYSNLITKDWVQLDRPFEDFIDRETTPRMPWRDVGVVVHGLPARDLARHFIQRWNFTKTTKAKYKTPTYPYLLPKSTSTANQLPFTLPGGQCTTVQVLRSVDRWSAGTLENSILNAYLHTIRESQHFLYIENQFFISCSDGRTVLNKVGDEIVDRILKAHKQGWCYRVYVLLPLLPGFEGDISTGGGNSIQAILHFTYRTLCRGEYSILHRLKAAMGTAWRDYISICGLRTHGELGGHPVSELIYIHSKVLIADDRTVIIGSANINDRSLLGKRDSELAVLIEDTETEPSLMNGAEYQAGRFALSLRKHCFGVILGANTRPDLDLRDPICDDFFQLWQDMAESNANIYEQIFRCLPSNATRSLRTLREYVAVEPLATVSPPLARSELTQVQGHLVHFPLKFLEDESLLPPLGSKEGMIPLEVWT
The nature of experiment [29]: Glucagon-like peptide 1 release potency, NCI-H716 cell line, dose-response, half-maximal inhibitory concentration (AID 1117344). It counts as functional, cell-based.
Experiment [30] can be described thus: Dose-response inhibition of insulin secretion in a rat insulinoma line at 5 mM glucose (AID 1117331). It counts as functional, cell-based. To be noted: INS-1E.
The nature of experiment [31]: half-maximal inhibitory concentration for glucagon-like peptide-1 release, STC-1 cell line, dose-response (AID 1117345). It counts as functional, cell-based.
Experiment [32] is described as follows: Luminescence Cell-Based Dose Retest to Confirm Inhibitors of Cancer Stem Cells. [Related pubchem assays (depositor defined):AID2717, AID2721]. Format: functional, Homo sapiens. Conditions: Homo sapiens.

Chain of Sphingosine 1-phosphate receptor 2 (O95136 whole entry): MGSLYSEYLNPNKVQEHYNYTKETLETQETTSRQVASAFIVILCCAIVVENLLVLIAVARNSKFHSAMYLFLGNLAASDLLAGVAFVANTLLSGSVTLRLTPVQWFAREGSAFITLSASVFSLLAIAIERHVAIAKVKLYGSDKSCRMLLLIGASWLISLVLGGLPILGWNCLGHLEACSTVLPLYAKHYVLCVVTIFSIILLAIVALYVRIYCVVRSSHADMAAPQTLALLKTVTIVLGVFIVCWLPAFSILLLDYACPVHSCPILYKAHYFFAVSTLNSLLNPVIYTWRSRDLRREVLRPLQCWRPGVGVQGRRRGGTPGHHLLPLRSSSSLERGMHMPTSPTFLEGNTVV
Chain of Luciferin 4-monooxygenase (P08659 whole entry): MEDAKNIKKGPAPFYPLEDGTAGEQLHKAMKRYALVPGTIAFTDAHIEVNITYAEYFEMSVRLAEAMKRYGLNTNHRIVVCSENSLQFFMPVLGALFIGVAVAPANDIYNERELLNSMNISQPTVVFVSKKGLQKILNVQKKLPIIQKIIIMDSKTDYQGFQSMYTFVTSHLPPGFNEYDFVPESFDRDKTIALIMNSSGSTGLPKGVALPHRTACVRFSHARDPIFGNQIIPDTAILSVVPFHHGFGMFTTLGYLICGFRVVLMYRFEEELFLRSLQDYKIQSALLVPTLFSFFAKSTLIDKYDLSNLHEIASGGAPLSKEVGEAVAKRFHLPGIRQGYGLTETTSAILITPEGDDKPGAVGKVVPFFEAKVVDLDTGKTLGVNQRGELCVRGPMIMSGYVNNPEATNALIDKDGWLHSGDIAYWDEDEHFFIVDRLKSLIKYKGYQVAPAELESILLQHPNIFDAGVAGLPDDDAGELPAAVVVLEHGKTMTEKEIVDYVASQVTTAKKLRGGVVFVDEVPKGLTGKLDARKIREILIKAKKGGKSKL

Turning to `CCC(=O)Nc1cc(OC)c(NC(=O)c2ccccc2)cc1OC`, in [1], the EC50 is 1.85 µM (active).

On to `Cc1cccc(N2CCN(C3=C(Cl)C(=O)N(c4ccc(Cl)c(Cl)c4)C3=O)CC2)c1C`, for which the IC50 (at Bcl-2-related protein A1 [2]; at Bcl-2-related protein A1 [3]; in [4]) was > 100 µM (not active) in each case.

Consider `O=C(Nc1ccc(F)cc1)c1cccs1`, for which, in experiment [5], the IC50 is on record as > 30 µM (not active).

On to `C/C(NC1CCCC1)=C(/C#N)C(N)=O`, for which, in experiment [6], the IC50 was 33.3 µM (not active).

On to `Cc1nnc(SCCN2CCOCC2)c2nn(-c3ccccc3F)c(C)c12`, for which the EC50 in experiment [7] is > 112 µM (not active); in experiment [8] it was 2.43 µM (not active); in experiment [9], > 112 µM (not active).

`CC(=O)NC1(c2ccccc2)CCN(c2cc(C)nc(-c3ccccc3)n2)CC1`: the EC50 in [10] is > 67.5 µM (inactive). For the same molecule, the IC50 in [11] is > 67.5 µM (inactive).

With `COc1ccc(/C=N/NC(=O)c2[nH]c3ccc(Br)cc3c2-c2ccccc2)cc1`, the IC50 is 0.296 µM (active) in experiment [12] and > 80 µM (inactive) in experiment [17]. The EC50 in the experiment on BJ [13] is 34.8 µM (inconclusive); in the experiment on BJ [14], < 0.12 µM (inconclusive); in the experiment with BJ [15] it was 0.0886 µM (active); in [16], 0.361 µM (active). For the same molecule, the AC50 on Paired box protein Pax-8 is < 0.5 µM (active).

With `COc1cccc(NC(=O)C(=O)N/N=C(\C)CC(=O)Nc2ccc(NC(C)=O)cc2)c1`, the EC50 was > 12 µM (not active) in experiment [18]; < 0.1 µM (active) in [19]; > 12 µM (not active) in experiment [20]; 9.31 µM (active) in [21]; 25.6 µM (active) with H4; 1.25 µM (active) in [22].

Turning to `O=C(C1CCOCC1)N1C[C@@H]2[C@H](c3ccccc31)[C@H](CO)N2C(=O)Cc1ccccn1`, in experiment [23], the AC50 is 22.9 µM (active).

Take `O=C(c1ccccc1F)N1CC(=O)N2[C@H](CO)[C@H](c3ccc(-c4cccnc4)cc3)[C@H]2C1`: the concentration at half-maximal activity (AC50) was < 0.3 µM (active) in experiment [24]; 0.197 µM (active) in experiment [25]; 0.427 µM (active) in experiment [26]; 0.129 µM (active) in experiment [27]; 0.148 µM (active) in experiment [28].

Consider `O=C(NCCN1CCC2(CC1)C(=O)NCN2Cc1ccccc1Br)c1ccc2ccccc2c1`, for which the IC50 was 1.68 µM (active) at Phospholipase D1 and 0.16 µM (active) on Phospholipase D2.

`O=C1Nc2ccc(Cl)cc2[C@@](C#CC2CC2)(C(F)(F)F)O1` [EFAVIRENZ]: the IC50 in experiment [29] was 21.2 µM (inactive); in experiment [30], 3.87 µM (active); in experiment [31], 2.48 µM (active). In experiment [32], the AC50 was 6.38 µM (active).

The record behind these values is ChEMBL document CHEMBL1201862, “PubChem BioAssay data set” (2004).
